Legend:
swine adipose tissue = experiment: In vitro inhibition of lipogenesis (incorporation of radioactive glucose carbon into lipid) in swine adipose tissue slices; assay type: cell-based; settings: Sus scrofa, 100 micrograms per milliliter, 37° C., 2 hours, 5% DMSO, compared to control without test compound, triplicate, read-out: Percent Inhibition of lipogenesis
Text: The manner in which they cause this effect is not known with certainty; it is believed that they interfere with the synthesis of fatty acids in the tissue. Their effectiveness for this purpose has been ascertained by immersing samples of swine adipose tissue in a liquid medium containing radioactive glucose and the test chemical for a period time, then isolating the lipid from the treated tissue and determining the incorporation of the ratioactive carbon into the lipid by means of scintillation counting techniques. These tests were conducted in swine adipose tissue because in swine the primary site of lipogenesis--i.e., fatty acid synthesis--appears to be adipose tissue.
Described in more detail, the tests were conducted according to the following general procedure.
150 milligrams of slices of swine adipose tissue were incubated at 37° C. for 2 hours with shaking in 3 milliliters of Krebs-Ringer bicarbonate solution containing one-half the usual calcium ion concentration, 60 micromoles of glucose, 0.5 microCurie of glucose-U^14 C, and 100 milliunits of insulin, and 5% dimethyl sulfoxide (DMSO). The test compounds were added as a solution or suspension in DMSO and were present at a concentration of 100 micrograms per milliliter of the incubation mixture.
The incubation was terminated by addition of 0.25 milliliter of 1 N sulfuric acid. The resulting mixture was extracted with a total of 25 milliliters of chloroform:methanol (2:1 v/v). The extracts were washed according to Folch et al. (J. Biol. Chem., 226, 497-509, (1957)), air dried, and counted in a liquid scintillation counter with 15 milliliters of counting fluid (two parts toluene containing 0.4% w/v New England Nuclear Omnifluor: 1 part Triton X-100). The tests were conducted in triplicate and were accompanied by control tests in which all ingredients,proportions and conditions were the same except that no test compound was included. From the data obtained were calculated the percent inhibition of lipid synthesis by the test compound in each case. The data obtained from these tests were set out in Table I, as the percent inhibition of lipogenesis compared to the results obtained in the control tests wherein only the test compound was omitted.

[1] = test system: swine adipose tissue lipid synthesis; experiment: In vivo inhibition of swine adipose tissue lipid synthesis (pigs dosed in feed, biopsy slices incubated with radioactive glucose); settings: approx. 25 mg/kg per day for seven days in ration, compared to control animals; for lipogenic rate after 2 weeks: biopsy 1 week after withdrawal of drug; for effect on lipogenesis after 1 week: biopsy after 1 week of drug administration
Description: Compounds 1 and 6 were tested to determine the in vivo inhibition of swine adipose tissue lipid synthesis, as follows: pigs weighing about 20 kilograms were administered a fixed drug dose of approximately 25 milligrams of drug per kilogram of animal body weight per day for seven consecutive days. The drug was formulated to contain 10%w active ingredient and was prepared as coarse granules using 4%w plasdene as the granulating agent and lactose as the carrier. […] The daily drug or placebo dose was added to 1.2 kilograms of swine ration; about one-third of the total was fed at 0800, 1200, and 1600 hours. Biopsy samples were obtained from the dorsal subcutaneous adipose tissue (ca 1 gram) in the neck region before drug administration, after 1 week of drug administration, and 1 week after withdrawal of drug. Adipose tissue slices were prepared from the biopsy sample, and in vitro lipogenesis was determined with radioactive glucose as substrate. The incubation was similar to that previously described except that there was no DMSO or test compound in the flasks.

Row | SMILES | inhibition at 100 µg/mL (swine adipose tissue) [%] | lipogenic rate after 2 weeks [1] | effect on lipogenesis after 1 week [1]
1 | CCCCCCCC[C@@H]1C[C@H]1C(=O)OCC (relative stereo) [Compound 1, Ethyl 2-octylcyclopropanecarboxylate (trans)] | > 20 | significantly reduced the lipogenic rate | neither of the test compounds had significantly affected lipogenesis
2 | CCCCCCCCC[C@@H]1C[C@H]1C(=O)OCC (relative stereo) [Compound 2, Ethyl 2-nonylcyclopropanecarboxylate (trans-)] | 27 |  | 
3 | CCCCCCCC[C@@H]1C[C@H]1C(N)=O (relative stereo) [Compound 4, 2-Octylcyclopropanecarboxamide (trans)] | > 20 |  | 
4 | CCCCCCCCC[C@@H]1C[C@H]1C(=O)O (relative stereo) [Compound 5, 2-Nonylcyclopropanecarboxylic acid (trans)] | 79 |  | 
5 | CCCCCCCC[C@@H]1C[C@H]1C(=O)O (relative stereo) [Compound 6, 2-octylcyclopropanecarboxylic acid (trans)] | 77 | significantly reduced the lipogenic rate | neither of the test compounds had significantly affected lipogenesis
6 | CCCCCCCCCCCCCC[C@@H]1C[C@H]1C(=O)O (relative stereo) [Compound 7, 2-tetradecylcyclopropanecarboxylic acid (trans)] | 46 |  | 
7 | CCCCCCCCC[C@@H]1C[C@H]1C(N)=O (relative stereo) [Compound 8, 2-Nonylcyclopropanecarboxycarboxamide (trans)] | 34 |  | 
8 | O=C(O)[C@@H]1C[C@H]1c1ccccc1 (relative stereo) [Compound 13, 2-phenylcyclopropane-1-carboxylic acid (trans)] | 32 |  | 
9 | CCCCC1CC1C(=O)OCC (stereo not drawn) [Compound 3, Ethyl 2-butylcyclopropanecarboxylate] | 24 |  | 
10 | CCOC(=O)C1(C#N)CC1c1ccccc1 (stereo not drawn) [Compound 9, Ethyl 1-cyano-2-phenylcyclopropanecarboxylate] | 57 |  | 
11 | CCCCCCC1CC1(C#N)C(=O)OCC (stereo not drawn) [Compound 10, Ethyl 1-cyano-2-hexylcyclopropanecarboxylate (trans-)] | 44 |  | 
12 | N#CC1(C(=O)O)CC1c1ccccc1 (stereo not drawn) [Compound 11, 1-Cyano-2-phenylcyclopropanecarboxylic acid] | 49 |  | 
13 | CCOC(=O)C1CC1COC(C)=O (stereo not drawn) [Compound 12, Ethyl 2-((acetyloxy)methyl)cyclopropanecarboxylate] | 31 |  | 
14 | CCOC(=O)C1CC1(C#N)c1ccccc1 (stereo not drawn) [Compound 14, Ethyl 2-cyano-2-phenylcyclopropanecarboxylate] | 53 |  | 

— US4202902A, “Lipogenesis control by cyclopropane-carboxylic acids, esters and amides” (Shell Oil Company, priority 1979, dated 1980)
